Experimental data as given in patent US20260335277A1, “CHLOROTONIL DERIVATIVES” (priority 2023, published 2026).
In brackets after ≈: the same amount, converted by molar mass. Where two headings read alike, the source gives them in different places.

Experiments:
zebrafish larvae = test: Toxicity in zebrafish larvae (MTC / IC50); format: in vivo; conditions: for IC50 in zebrafish larvae: exposed 3 days post fertilization, monitored 48 h; for Selectivity Index S. aureus: zebrafish IC50 / MIC S. aureus Newman; for Selectivity Index P. falc 3D7: zebrafish IC50 vs P. falciparum 3D7
Procedure: (§1) For toxicity screening, zebrafish larvae were exposed three days post fertilization and monitored for 48 h until five days post fertilization. All malformations and pathophysiological phenotypes were noted and used to determine the inhibitory concentration (IC50) of the respective derivative against zebrafish larvae. The selectivity index (SI) was then calculated using the IC50 and the MIC of either S. aureus or P. falciparum 3D7.

[1] = system: E. faecium DSM-17050 (vancomycin-resistant, VRE); test: MIC testing (broth microdilution, EUCAST); format: cell-based
Procedure: (§2) Minimal inhibitory concentration (MIC) of the compounds in the present invention was determined using broth microdilution performed according to EUCAST guidelines (ISO20776-1:2019). S. aureus ATCC29213 and E. faecalis ATCC29212 served as quality control strains.

E. faecalis ATCC-29212 = test: MIC testing (broth microdilution, EUCAST); format: cell-based; conditions: for MIC E. faecalis: E. faecalis ATCC-29212
Procedure: as §2

S. aureus Newman = test: MIC testing (broth microdilution, EUCAST); format: cell-based
Procedure: as §2

S. epidermidis DSM-28765 = test: MIC testing (broth microdilution, EUCAST); format: cell-based; conditions: for MIC S. epiderm.: S. epidermidis DSM-28765
Procedure: as §2

[2] = system: S. aureus N315 (methicillin-resistant, MRSA); test: MIC testing (broth microdilution, EUCAST); format: cell-based
Procedure: as §2

E. faecium DSM-20477 = test: MIC testing (broth microdilution, EUCAST); format: cell-based; conditions: for MIC E. faecium: E. faecium DSM-20477
Procedure: as §2

E. faecium = test: MIC 50/90 profiling in multidrug-resistant clinical isolates; format: cell-based; conditions: Enterococcus faecium; for MIC: read-out: MIC range; for MIC50 / MIC90: E. faecium (n = 98)
Procedure: as §2
(§3) Activity of dehalogenil against multidrug-resistant clinical isolates of S. aureus (n=100) and Enterococcus spp. […] Compared to the standard of care (linezolid, daptomycin and tigecyclin), dehalogenil MIC90 was lowered in both pathogens by 20-40-fold with unimodal distribution indicating no pre-existing resistances.

[3] = system: clinical isolates of S. aureus; test: as above; format: cell-based; conditions: Staphylococcus aureus; S. aureus clinical isolates (n = 100)
Procedure: as §2, §3

[4] = Toxicity in zebrafish larvae (MTC / IC50); format: in vivo; conditions: zebrafish, zebrafish larvae
Procedure: as §1

[5] = system: mature gametocytes (stages IV and V); test: Activity against mature gametocytes (stage IV-V), bioluminescence assay; format: cell-based, P. falciparum
Procedure: Activity against gametocytes was determined using an in vitro bioluminescence assay as described previously (doi.org/10.1371/journal.pone.0035019).

[6] = cited from earlier work
S. aureus USA300LAC = test: S. aureus blood infection (sepsis) model; format: in vivo, mouse (CD-1); conditions: 60 mg/kg
Procedure: Dehalogenil was further tested in a Staphylococcus blood infection (sepsis) model, alongside linezolid as reference compound. Mice were infected using S. aureus USA300LAC (10^8 CFU/animal) and subsequently treated with a daily total of 5, 10 or 25 mg/kg SC dehalogenil, split into two doses (8 h interval, BID regimen) until 3 days post infection.
Mice were infected intravenously using S. aureus USA300LAC (10^8 CFU/mice). Compounds were administered twice daily starting day 0 until day 3, with the daily total dose indicated. Curves were compared via Mantel-Cox test (Prism), with ***: p<0.001 and **: p<0.01.

[7] = zebrafish IC50 / MIC S. aureus Newman, read-out: Selectivity Index S. aureus
[8] = zebrafish IC50 vs P. falciparum 3D7, read-out: Selectivity Index P. falc 3D7

SMILES | IC50 in zebrafish larvae (zebrafish larvae) [nM] | MIC VRE [1] [µg/mL] | MIC E. faecalis (E. faecalis ATCC-29212) [µg/mL] | MIC S. aureus (S. aureus Newman) [µg/mL] | MIC S. epiderm. (S. epidermidis DSM-28765) [µg/mL] | MIC MRSA [2] [µg/mL] | MIC E. faecium (E. faecium DSM-20477) [µg/mL] | MIC (E. faecium) [µg/mL] | MIC50 (E. faecium) [µg/mL] | MIC90 (E. faecium) [µg/mL] | MIC50 [3] [µg/mL] | MIC90 [3] [µg/mL] | further results
CC1C=CC=CC(C)C2C=CC3CC4(C)OC4C(C)C3C2C(=O)CC(=O)C(C)C(=O)O1 (centres unmarked) [Dehalogenil-Epo2] | 1220 | 0.4 (≈ 0.938 µM) | 1.6 (≈ 3.75 µM) | 0.4 (≈ 0.938 µM) | 0.8 (≈ 1.88 µM) | 0.2 (≈ 0.469 µM) | 0.8 (≈ 1.88 µM) | – | – | – | – | – | Selectivity Index S. aureus (zebrafish larvae): 1.30; Selectivity Index P. falc 3D7 (zebrafish larvae): 6.2
CCCCCCCCCC(=O)N[C@@H](Cc1c[nH]c2ccccc12)C(=O)N[C@H](CC(N)=O)C(=O)N[C@@H](CC(=O)O)C(=O)N[C@@H]1C(=O)NCC(=O)N[C@@H](CCCN)C(=O)N[C@@H](CC(=O)O)C(=O)N[C@H](C)C(=O)N[C@@H](CC(=O)O)C(=O)NCC(=O)N[C@H](CO)C(=O)N[C@@H]([C@H](C)CC(=O)O)C(=O)N[C@@H](CC(=O)c2ccccc2N)C(=O)O[C@@H]1C [daptomycin] | – | – | – | – | – | – | – | 0.5 to 4 (≈ 0.309 to 2.47 µM) | 2 (≈ 1.23 µM) | 4 (≈ 2.47 µM) | 0.5 (≈ 0.309 µM) | 4 (≈ 2.47 µM) | –
CC1=CC(C)C2C(C=CC3C(C)C=CC=CC(C)OC(=O)CC(=O)CC(=O)C32)C1 (centres unmarked) [dehalogenil-2′DM, 2′Demethyldehalogenil] | 27030 | – | – | – | – | – | – | – | – | – | – | – | selectivity ratio [4, 7]: 13.4; selectivity ratio [4, 8]: 66.2; IC50 ([5]; Plasmodium falciparum): 499 ± 86.8 nM; MIC ([1]; Enterococcus faecium): 0.8 µg/mL (≈ 2.02 µM); MIC (E. faecalis ATCC-29212; Enterococcus faecalis, ATCC29212, E. faecalis ATCC-29212): 1.6 µg/mL (≈ 4.04 µM); MIC (S. aureus Newman; Staphylococcus aureus, NEWMAN): 0.8 µg/mL (≈ 2.02 µM); MIC (S. epidermidis DSM-28765; Staphylococcus epidermidis, DSM28765, S. epidermidis DSM-28765, read-out: MIC S. epiderm.): 3.2 µg/mL (≈ 8.07 µM); MIC ([2]; Staphylococcus aureus, MRSA): 0.8 µg/mL (≈ 2.02 µM); MIC (E. faecium DSM-20477; Enterococcus faecium, DSM20477, E. faecium DSM-20477): 0.8 µg/mL (≈ 2.02 µM)
CC1=CC(C)C2C(C=CC3C(C)C=CC=CC(C)OC(=O)C(C)C(=O)CC(=O)C32)C1 (stereo not drawn) [dehalogenil-2′Epi] | 38460 | 0.1 (≈ 0.244 µM) | 0.2 (≈ 0.487 µM) | 0.2 (≈ 0.487 µM) | 0.4 (≈ 0.974 µM) | 0.1 (≈ 0.244 µM) | 0.05 (≈ 0.122 µM) | – | – | – | – | – | selectivity ratio [4, 7]: 78.9; selectivity ratio [4, 8]: 1370; IC50 [5]: 25.2 ± 1.63 nM
CC[C@H](C)[C@H](NC(=O)[C@H]([C@@H](C)CC)N(C)C(C)=O)C(=O)N[C@H](C(=O)N[C@@H](CC(C)C)C(=O)[C@@]1(C)CO1)[C@@H](C)O [epoxomicin] | – | – | – | – | – | – | – | – | – | – | – | – | toxic effects in vivo [6]: shows toxic effects in vivo
CC(=O)NC[C@H]1CN(c2ccc(N3CCOCC3)c(F)c2)C(=O)O1 [linezolid] | – | – | – | – | – | – | – | 0.5 to 64 (≈ 1.48 to 190 µM) | 4 (≈ 11.9 µM) | 4 (≈ 11.9 µM) | 4 (≈ 11.9 µM) | 8 (≈ 23.7 µM) | survival (S. aureus USA300LAC): survival of all animals
CC1=C[C@@H](C)[C@H]2[C@@H]3C(O)=C(SS)C(=O)[C@H](C)C(=O)O[C@@H](C)/C=C/C=C\[C@@H](C)[C@@H]3C=C[C@@H]2C1 [thiotonil] | – | 0.025 (≈ 0.0527 µM) | 0.2 (≈ 0.421 µM) | 0.4 (≈ 0.843 µM) | 0.4 (≈ 0.843 µM) | 0.4 (≈ 0.843 µM) | 0.025 (≈ 0.0527 µM) | – | – | – | – | – | Selectivity Index S. aureus (zebrafish larvae): >62.5; Selectivity Index P. falc 3D7 (zebrafish larvae): >892.9; IC50 [5]: 67.4 ± 8.6 nM
CN(C)c1cc(NC(=O)CNC(C)(C)C)c(O)c2c1C[C@H]1C[C@H]3[C@H](N(C)C)C(=O)C(C(N)=O)=C(O)[C@@]3(O)C(=O)C1=C2O [tigecyclin] | – | – | – | – | – | – | – | 0.5 to 16 (≈ 0.854 to 27.3 µM) | 2 (≈ 3.41 µM) | 2 (≈ 3.41 µM) | 4 (≈ 6.83 µM) | 8 (≈ 13.7 µM) | MIC [3]: 1 to 16 µg/mL (≈ 1.71 to 27.3 µM)
